# In patent US7591997B2, “Method for determining the susceptibility of a subject to infection” (Mabtech AB, priority 2002, dated 2009):
# System: Actinobacillus actinomycetemcomitans
# Test: Standard colony forming units (CFU) assay of LL-37 on A. actinomycetemcomitans
# Type: cell-based
# Procedure: In this study we used an isolate of Actinobacillus actinomycetemcomitans from the oral cavitas of patient (A), kindly provided by Dr A. Johansson (Umeå). Bacteria were routinely grown on tryptic soy agar (Difco) supplemented with 0.5% yeast extract (TSBY) at microaerophilic conditions. The effect of LL-37 on A. actinomycetemcomitans was tested in a standard colony forming units (CFU)-assay (Tanaka et al., Oral Microbiol Immunol. 2000;15(4):226-31) by incubating 10^5 bacteria for 90 min with 20 μg/ml of synthetic LL-37 in 10 mM phosphate buffer pH 7.2 with 1% TSBY.
substance,measurement,setting,value
"LL-37: Human cathelicidin-type antibacterial peptide encoded by the CAMP gene, SEQ ID NO: 3; released from the proform cathelin-LL-37 (LLGDFFRKSKEKIGKEFKRIVQRIKDFLRNLVPRTES; homo sapiens)",reduction in colony counts,"20 μg/ml LL-37 for 90 min, 10^5 bacteria, isolate from patient (A), 10 mM phosphate buffer pH 7.2 with 1% TSBY",3-4 log
same,effect on growth of the bacteria in vitro,A. actinomycetemcomitans isolated from patient (A),could stop the growth
